Among the data in publication PMC3913438, “Nucleotide Pyrophosphatase/Phosphodiesterase 1 Exerts a Negative Effect on Starch Accumulation and Growth in Rice Seedlings under High Temperature and CO2 Concentration Conditions” (Plant and Cell Physiology, 2013) are Km values, retold here.

What is called Km is the substrate concentration at which the rate is half of its maximum.

The target of the test is T1, NPP1 (Oryza sativa, UniProt Q0X0G2).
T1 construct: recombinant, purified from transgenic rice cells (UNP1) overexpressing NPP1 cDNA; 70 kDa SDS-PAGE, 251 kDa gel filtration; gene on chromosome 8
T1 sequence (Q0X0G2 26-623): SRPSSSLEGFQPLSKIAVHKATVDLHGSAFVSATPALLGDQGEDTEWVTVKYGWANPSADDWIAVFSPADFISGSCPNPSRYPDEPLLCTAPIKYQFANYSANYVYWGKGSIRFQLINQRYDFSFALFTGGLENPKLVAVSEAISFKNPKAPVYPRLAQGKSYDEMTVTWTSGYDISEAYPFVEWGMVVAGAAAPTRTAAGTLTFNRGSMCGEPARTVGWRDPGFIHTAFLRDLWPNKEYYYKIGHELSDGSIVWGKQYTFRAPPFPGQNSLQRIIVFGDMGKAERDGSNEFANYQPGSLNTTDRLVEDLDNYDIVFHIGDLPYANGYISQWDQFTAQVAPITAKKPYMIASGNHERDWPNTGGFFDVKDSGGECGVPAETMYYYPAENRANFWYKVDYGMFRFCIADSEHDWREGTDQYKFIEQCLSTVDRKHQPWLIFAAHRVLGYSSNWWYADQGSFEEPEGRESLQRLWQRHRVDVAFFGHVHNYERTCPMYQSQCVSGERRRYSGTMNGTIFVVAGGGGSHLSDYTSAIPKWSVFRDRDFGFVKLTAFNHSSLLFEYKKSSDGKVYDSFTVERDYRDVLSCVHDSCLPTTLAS
Kind of test: hydrolysis kinetics, […] substrate. The test is classed as biochemical. The conditions noted are these: 37°C, optimal pH.

The structures appear in SMILES notation.

With `Nc1nc2c(ncn2[C@@H]2O[C@H](COP(=O)(O)OP(=O)(O)O[C@H]3O[C@H](CO)[C@@H](O)[C@H](O)[C@@H]3O)[C@@H](O)[C@H]2O)c(=O)[nH]1` [GDP-mannose], the Michaelis constant (Km) came to 800 µM.

With `Nc1ccn([C@@H]2O[C@H](COP(=O)(O)OP(=O)(O)O[C@H]3O[C@H](CO)[C@@H](O)[C@H](O)[C@H]3O)[C@@H](O)[C@H]2O)c(=O)n1` [CDP-glucose], the Km turned out to be 900 µM.
